Test [1] addresses T1, Ephrin type-A receptor 1 (Homo sapiens) (UniProt P21709).
T1 sequence (whole entry): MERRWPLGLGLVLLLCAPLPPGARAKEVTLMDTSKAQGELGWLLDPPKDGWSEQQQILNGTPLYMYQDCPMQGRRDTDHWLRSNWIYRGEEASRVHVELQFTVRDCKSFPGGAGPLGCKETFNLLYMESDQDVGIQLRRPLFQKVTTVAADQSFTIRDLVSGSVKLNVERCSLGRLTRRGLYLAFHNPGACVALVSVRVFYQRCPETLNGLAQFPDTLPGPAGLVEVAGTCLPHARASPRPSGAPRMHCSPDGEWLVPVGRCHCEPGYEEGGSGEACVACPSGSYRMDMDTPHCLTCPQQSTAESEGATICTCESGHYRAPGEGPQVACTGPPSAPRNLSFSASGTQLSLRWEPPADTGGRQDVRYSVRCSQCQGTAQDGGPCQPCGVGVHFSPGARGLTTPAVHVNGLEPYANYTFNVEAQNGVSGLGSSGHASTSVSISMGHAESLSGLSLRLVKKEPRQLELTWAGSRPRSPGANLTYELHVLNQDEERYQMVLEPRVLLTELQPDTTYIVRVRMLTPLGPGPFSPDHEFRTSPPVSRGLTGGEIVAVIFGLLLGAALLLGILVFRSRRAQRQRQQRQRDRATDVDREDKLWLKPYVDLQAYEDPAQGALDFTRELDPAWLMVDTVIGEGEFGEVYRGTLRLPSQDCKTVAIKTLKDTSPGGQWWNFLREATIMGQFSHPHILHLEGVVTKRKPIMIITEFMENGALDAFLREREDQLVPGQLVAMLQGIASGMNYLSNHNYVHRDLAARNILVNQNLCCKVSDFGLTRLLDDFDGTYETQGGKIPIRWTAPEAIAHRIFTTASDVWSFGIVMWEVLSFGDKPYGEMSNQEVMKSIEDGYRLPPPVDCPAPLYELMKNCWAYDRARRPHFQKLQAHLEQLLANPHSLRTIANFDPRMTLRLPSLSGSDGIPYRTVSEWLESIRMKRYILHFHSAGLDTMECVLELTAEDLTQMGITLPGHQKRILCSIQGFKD
Nature of the test: Selectivity interaction (KinomeScan (DiscoverX)) EUB0000229b EPHA1. The note with it: at 10 µM.

In test [2] the target is T2, Serine/threonine-protein kinase DCLK1 (Homo sapiens) (UniProt O15075).
T2 sequence (whole entry): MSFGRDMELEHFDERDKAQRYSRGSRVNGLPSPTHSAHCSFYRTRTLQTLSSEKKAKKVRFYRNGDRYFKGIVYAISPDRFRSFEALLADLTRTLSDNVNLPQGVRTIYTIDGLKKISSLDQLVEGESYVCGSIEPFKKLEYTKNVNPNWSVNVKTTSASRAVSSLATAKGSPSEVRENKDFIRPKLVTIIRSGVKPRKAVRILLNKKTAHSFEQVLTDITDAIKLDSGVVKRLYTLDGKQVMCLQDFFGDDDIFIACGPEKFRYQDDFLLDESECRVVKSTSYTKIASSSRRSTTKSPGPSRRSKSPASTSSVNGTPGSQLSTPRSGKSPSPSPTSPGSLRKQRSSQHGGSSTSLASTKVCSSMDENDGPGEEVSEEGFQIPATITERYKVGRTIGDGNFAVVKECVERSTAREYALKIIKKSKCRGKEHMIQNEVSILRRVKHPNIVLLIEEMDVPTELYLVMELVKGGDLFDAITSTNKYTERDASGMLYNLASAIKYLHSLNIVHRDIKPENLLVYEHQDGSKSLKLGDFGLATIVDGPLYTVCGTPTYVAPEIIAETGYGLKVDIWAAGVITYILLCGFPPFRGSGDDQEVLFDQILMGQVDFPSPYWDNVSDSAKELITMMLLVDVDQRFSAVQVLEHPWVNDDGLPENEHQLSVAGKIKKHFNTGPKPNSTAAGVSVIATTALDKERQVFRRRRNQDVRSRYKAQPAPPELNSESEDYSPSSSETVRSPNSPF
Nature of the test: Selectivity interaction (KinomeScan (DiscoverX)) EUB0001619a DCLK1. The conditions noted are these: at 1 µM.

The target of test [3] is Mitogen-activated protein kinase kinase kinase kinase 1 (Homo sapiens) (UniProt Q92918). Nature of the test: Selectivity interaction (Kinase panel (KiNativ target engagement assay in Jurkat cells)) EUB0001635a MAP4K1. It counts as cell-based. The note with it: Selectivity number of off-targets 0.0, Selectivity number of targets 233.0, Source Knowledge https://www.sciencedirect.com/science/article/pii/S2451945619300674?via%3Dihub, at 1 µM.
Chain of Mitogen-activated protein kinase kinase kinase kinase 1 (Homo sapiens) (Q92918 whole entry, looked up): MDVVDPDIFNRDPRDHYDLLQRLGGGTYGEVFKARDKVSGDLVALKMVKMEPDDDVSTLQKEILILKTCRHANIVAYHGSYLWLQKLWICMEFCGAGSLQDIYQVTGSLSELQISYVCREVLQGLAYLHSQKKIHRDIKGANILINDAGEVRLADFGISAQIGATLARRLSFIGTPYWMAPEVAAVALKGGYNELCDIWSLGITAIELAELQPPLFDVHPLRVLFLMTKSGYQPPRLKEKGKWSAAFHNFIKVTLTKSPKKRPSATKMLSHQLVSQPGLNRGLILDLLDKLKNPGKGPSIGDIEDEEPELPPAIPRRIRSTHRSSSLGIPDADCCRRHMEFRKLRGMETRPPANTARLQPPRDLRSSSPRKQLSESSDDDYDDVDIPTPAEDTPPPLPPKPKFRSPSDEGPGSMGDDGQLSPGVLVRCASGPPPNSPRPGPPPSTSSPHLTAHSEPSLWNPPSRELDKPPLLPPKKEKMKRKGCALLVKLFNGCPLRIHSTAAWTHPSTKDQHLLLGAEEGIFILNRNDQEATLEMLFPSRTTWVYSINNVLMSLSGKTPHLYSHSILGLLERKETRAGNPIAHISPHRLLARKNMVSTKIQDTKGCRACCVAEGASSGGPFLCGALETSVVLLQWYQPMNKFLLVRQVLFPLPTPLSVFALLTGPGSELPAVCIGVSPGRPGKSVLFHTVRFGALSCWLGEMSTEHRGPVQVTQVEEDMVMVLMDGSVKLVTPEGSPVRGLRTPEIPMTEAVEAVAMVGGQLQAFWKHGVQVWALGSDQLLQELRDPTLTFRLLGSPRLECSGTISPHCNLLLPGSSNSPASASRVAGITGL

In test [1], `COc1cc(N(C)c2ccnc3ccc(C(F)(F)F)cc23)cc(OC)c1OC` came in with a % binding of 90%.

For `N#Cc1cccc(-c2c[nH]c3ncnc(N4CCOCC4)c23)c1`, the % of control in test [2] was 100%.

For the compound `C=CC(=O)Nc1ccc(C(=O)Nc2[nH]nc3c2CN(C(=O)N[C@H](CN(C)C)c2ccccc2)C3(C)C)cc1`, in test [3], the % of engagement came to 4.4%.

These data come from ChEMBL document CHEMBL5465560, “Selectivity Literature for EUbOPEN Chemogenomic Library” (2024).
